# Test results reported in patent US9873699B1, “Anti-cancer agents” (KING SAUD UNIVERSITY, priority 2017, dated 2018).
# System: FaDu hypopharyngeal tumor cells
# Assay: Cytotoxicity assay (MTT)
# Type: cell-based
# Settings: 48 h
# Description: The synthesized series of compounds 4a-m stock solution were prepared by dissolved in DMSO (Sigma-Aldrich, St. Louis, Mo., USA) or dH2O. The stock solutions were diluted with cell culture medium and used as a working solution. Different concentration of working solution was exposed to 5 to 7×10^3 cells seeded 96 well plates after 24 h incubation. DMSO/dH2O was used as the solvent control. Nuclear morphological changes were monitored and photographed following treatment of synthesized compounds for 48 h using inverted microscope (Carl Zeiss, Jena, Germany). After incubation, plates were centrifuged and washed with cell culture medium. Subsequently, 20 μL of MTT solution [5 mg/mL in phosphate-buffered saline (PBS)] was added to each well, and the plates were protected from light and kept in CO2 incubator at 37° C. for 4 h. The purple color formazan product was formed and dissolved in 100 μL of DMSO. The absorbance was monitored at 570 nm (measurement) and 630 nm (reference) using a 96 well plate reader (Bio-Rad, Hercules, Calif., USA). Data were collected for four replicates each and used to calculate the median effect dose or concentration, i.e., IC50 using the Calcusyn software.
# The cytotoxicity of synthesized compounds 4(a-m) on FaDu hypopharyngeal tumor cells was assessed for 48 h, in comparison with the commercial anti-cancer drug bleomycin under identical conditions (FIGS. 6&7). […] The percentage of apoptotic cells is indicated by the histograms and the data shown are the means from triplicates. Vertical bars represent standard error of the mean.
row,Compound,cytotoxicity against cancer cells (in words)
1,"5′-benzyl-5-spiro[3,2′]oxindolopyrrolidino-4′-(methylphenyl)-1″-styryl-5-benzylidene-spiro[3′.3″]piperidi-4″-one [Compound 4a]",excellent cytotoxic property
2,"5′-benzyl-4′-(4-bromopheynyl)-5-spiro[3,2′]oxindolopyrrolidino-4′-(4-bromophenyl-1″-styryl-5-benzylidene-spiro[3′.3″]piperidi-4″-one [Compound 4c]",good cytotoxicity
3,O=C1Nc2ccccc2C12NC(Cc1ccccc1)C(c1ccccc1Cl)C21CN(C=Cc2ccccc2)CC(=Cc2ccccc2Cl)C1=O (stereo not drawn) [Compound 4d],good cytotoxicity
4,"Cc1cccc(C=C2CN(C=Cc3ccccc3)CC3(C2=O)C(c2cccc(C)c2)C(Cc2ccccc2)NC32C(=O)Nc3ccccc32)c1 (stereo not drawn) [Compound 4h, 5′-benzyl-4′-(3-tolyl)-5-spiro[3,2′]oxindolopyrrolidino-4′-(3-methylphenyl)-1″-styryl-5-benzylidene-spiro[3′.3″]piperidi-4″-one]",good cytotoxicity
5,"5′-benzyl-4′-(2,4-dichloropheynyl)-5-spiro[3,2′]oxindolopyrrolidino-4′-(2,4-dichlorophenyl-1″-styryl-5-benzylidene-spiro[3′.3″]piperidi-4″-one [Compound 4e]",good cytotoxicity
6,"Cc1ccccc1C=C1CN(C=Cc2ccccc2)CC2(C1=O)C(c1ccccc1C)C(Cc1ccccc1)NC21C(=O)Nc2ccccc21 (stereo not drawn) [Compound 4g, 5′-benzyl-4′-(2-tolyl)-5-spiro[3,2′]oxindolopyrrolidino-4′-(2-methylphenyl)-1″-styryl-5-benzylidene-spiro[3′.3″]piperidi-4″-one]",excellent cytotoxic property
